Marks after values point to notes of the source that are not given here.
Test system: MCF7 cells
Experiment: Immuno-staining of protein expression and protein phosphorylation, MCF7 cells
Assay type: cell-based
Parameters: ATM level / P-AMPKa level / P-317 (ULK1) level / ATG5 level / HDAC8 level / BIM level: scale not given here
Method: ZR75-1 and MCF7 cells were treated with vehicle control, GZ17-6.02, Palbociclib or the drugs combined for 3 hours and for 6 hours. Cells were fixed in place and immuno-staining performed with in house validated antibodies to detect protein expression and protein phosphorylation.

CC(=O)c1c(C)c2cnc(Nc3ccc(N4CCNCC4)cn3)nc2n(C2CCCC2)c1=O [PALBO, Palbociclib] gave an AKT level (MCF7, 3 h) of 100, an AMPKa level (MCF7, 3 h) of 102 and an ATG5 level (MCF7, 3 h) of 107. The ATG13 level (MCF7, 3 h) was 100, the ATM level (MCF7, 3 h) was 100 and the BAK level (MCF7, 3 h) was 95. For the same compound, the BAX level (MCF7, 3 h) was 103, the BCL-XL level (MCF7, 3 h) was 99 and the BIM level (MCF7, 3 h) was 109. For the same compound, the Beclin1 level (MCF7, 3 h) was 113#, the CD95 level (MCF7, 3 h) was 101 and the CHOP level (MCF7, 3 h) was 112. For the same compound, the “Cyclin D level” value (MCF7, 3 h) was 104, the “Cyclin E level” value (MCF7, 3 h) was 104 and the ER level (MCF7, 3 h) was 99. For the same compound, the ERBB1 level (MCF7, 3 h) was 99, the ERBB2 level (MCF7, 3 h) was 100 and the ERBB3 level (MCF7, 3 h) was 101. For the same compound, the ERK1/2 level (MCF7, 3 h) was 100, the ERK2 level (MCF7, 3 h) was 100 and the ERRB4 level (MCF7, 3 h) was 99. For the same compound, the FAS-L level (MCF7, 3 h) was 108, the GRP78 level (MCF7, 3 h) was 114# and the HDAC1 level (MCF7, 3 h) was 100. It also gave an HDAC2 level (MCF7, 3 h) of 94, an HDAC3 level (MCF7, 3 h) of 97 and an HDAC4 level (MCF7, 3 h) of 99. For the same compound, the HDAC5 level (MCF7, 3 h) was 99, the HDAC6 level (MCF7, 3 h) was 100 and the HDAC7 level (MCF7, 3 h) was 100. For the same compound, the HDAC8 level (MCF7, 3 h) was 100, the HDAC9 level (MCF7, 3 h) was 99 and the HDAC10 level (MCF7, 3 h) was 99. It also gave an HDAC11 level (MCF7, 3 h) of 100, an IDO1 level (MCF7, 3 h) of 97 and a JAK2 level (MCF7, 3 h) of 99. It also gave a JNK1/2 level (MCF7, 3 h) of 100, an LATS1/2 level (MCF7, 3 h) of 100 and an MCL1 level (MCF7, 3 h) of 95. It also gave an MHCA level (MCF7, 3 h) of 102, an NEDD4 level (MCF7, 3 h) of 96 and an NFkB level (MCF7, 3 h) of 101. The ODC level (MCF7, 3 h) was 103, the “P-89 (TAZ) level” value (MCF7, 3 h) was 105 and the “P-109 (YAP) level” value (MCF7, 3 h) was 106. The “P-127 (YAP) level” value (MCF7, 3 h) was 102, the “P-317 (ULK1) level” value (MCF7, 3 h) was 109 and the “P-397 (YAP) level” value (MCF7, 3 h) was 96. For the same compound, the “P-757 (ULK1) level” value (MCF7, 3 h) was 98, the “P-909 (LATS1/2) level” value (MCF7, 3 h) was 99 and the “P-1079 (LATS1/2) level” value (MCF7, 3 h) was 109. The P-AMPKa level (MCF7, 3 h) was 112, the P-ATG13 level (MCF7, 3 h) was 116# and the P-ATM level (MCF7, 3 h) was 105. It also gave a P-ERBB1 level (MCF7, 3 h) of 100, a P-ERBB2 level (MCF7, 3 h) of 99 and a P-ERBB3 level (MCF7, 3 h) of 111. It also gave a P-ERBB4 level (MCF7, 3 h) of 102, a P-ERK level (MCF7, 3 h) of 101 and a P-JAK2 level (MCF7, 3 h) of 101. It also gave a P-JNK level (MCF7, 3 h) of 89, a P-KIT level (MCF7, 3 h) of 100 and a P-MET level (MCF7, 3 h) of 100. For the same compound, the P-NFkB level (MCF7, 3 h) was 100, the P-PDGFRb level (MCF7, 3 h) was 103 and the P-PERK level (MCF7, 3 h) was 109. For the same compound, the “P-S2448 (mTOR) level” value (MCF7, 3 h) was 98, the “P-S2481 (mTOR) level” value (MCF7, 3 h) was 98 and the “P-T308 (AKT) level” value (MCF7, 3 h) was 96. The “P-Y694 (STAT5) level” value (MCF7, 3 h) was 98, the “P-Y705 (STAT3) level” value (MCF7, 3 h) was 98 and the P-eIF2a level (MCF7, 3 h) was 107. For the same compound, the P-p38 level (MCF7, 3 h) was 97, the “P-p70 T389 level” value (MCF7, 3 h) was 105 and the PD-L1 level (MCF7, 3 h) was 100. The PD-L2 level (MCF7, 3 h) was 100, the PDGFRb level (MCF7, 3 h) was 100 and the PERK level (MCF7, 3 h) was 101. It also gave a PP1 level (MCF7, 3 h) of 98, a PTEN level (MCF7, 3 h) of 103 and an STAT3 level (MCF7, 3 h) of 100. It also gave an STAT5 level (MCF7, 3 h) of 100, a TAZ level (MCF7, 3 h) of 101 and a ULK1 level (MCF7, 3 h) of 100. For the same compound, the “Y416 (c-SRC) level” value (MCF7, 3 h) was 100, the “Y527 (c-SRC) level” value (MCF7, 3 h) was 98 and the YAP level (MCF7, 3 h) was 99. For the same compound, the c-KIT level (MCF7, 3 h) was 100, the c-MET level (MCF7, 3 h) was 91 and the c-SRC level (MCF7, 3 h) was 100. It also gave an eIF2a level (MCF7, 3 h) of 99, a mTOR level (MCF7, 3 h) of 100 and a p38 level (MCF7, 3 h) of 101. For the same compound, the “p70 S6K level” value (MCF7, 3 h) was 99, the AKT level (MCF7, 6 h) was 100 and the AMPKa level (MCF7, 6 h) was 100. For the same compound, the ATG5 level (MCF7, 6 h) was 114#, the ATG13 level (MCF7, 6 h) was 101 and the ATM level (MCF7, 6 h) was 99. For the same compound, the BAK level (MCF7, 6 h) was 109, the BAX level (MCF7, 6 h) was 95 and the BCL-XL level (MCF7, 6 h) was 94. For the same compound, the BIM level (MCF7, 6 h) was 113#, the Beclin1 level (MCF7, 6 h) was 117# and the CD95 level (MCF7, 6 h) was 100. The CHOP level (MCF7, 6 h) was 116#, the “Cyclin D level” value (MCF7, 6 h) was 108 and the “Cyclin E level” value (MCF7, 6 h) was 104. It also gave an ER level (MCF7, 6 h) of 91, an ERBB1 level (MCF7, 6 h) of 101 and an ERBB2 level (MCF7, 6 h) of 100. The ERBB3 level (MCF7, 6 h) was 100, the ERK1/2 level (MCF7, 6 h) was 100 and the ERK2 level (MCF7, 6 h) was 100. For the same compound, the ERRB4 level (MCF7, 6 h) was 100, the FAS-L level (MCF7, 6 h) was 111 and the GRP78 level (MCF7, 6 h) was 115#. The HDAC1 level (MCF7, 6 h) was 99, the HDAC2 level (MCF7, 6 h) was 95 and the HDAC3 level (MCF7, 6 h) was 101. The HDAC4 level (MCF7, 6 h) was 102, the HDAC5 level (MCF7, 6 h) was 98 and the HDAC6 level (MCF7, 6 h) was 101. For the same compound, the HDAC7 level (MCF7, 6 h) was 101, the HDAC8 level (MCF7, 6 h) was 101 and the HDAC9 level (MCF7, 6 h) was 100. It also gave an HDAC10 level (MCF7, 6 h) of 99, an HDAC11 level (MCF7, 6 h) of 99 and an IDO1 level (MCF7, 6 h) of 96. For the same compound, the JAK2 level (MCF7, 6 h) was 100, the JNK1/2 level (MCF7, 6 h) was 100 and the LATS1/2 level (MCF7, 6 h) was 100. The MCL1 level (MCF7, 6 h) was 91, the MHCA level (MCF7, 6 h) was 103 and the NEDD4 level (MCF7, 6 h) was 97. The NFkB level (MCF7, 6 h) was 100, the ODC level (MCF7, 6 h) was 101 and the “P-89 (TAZ) level” value (MCF7, 6 h) was 103. For the same compound, the “P-109 (YAP) level” value (MCF7, 6 h) was 104, the “P-127 (YAP) level” value (MCF7, 6 h) was 104 and the “P-317 (ULK1) level” value (MCF7, 6 h) was 113#. For the same compound, the “P-397 (YAP) level” value (MCF7, 6 h) was 99, the “P-757 (ULK1) level” value (MCF7, 6 h) was 98 and the “P-909 (LATS1/2) level” value (MCF7, 6 h) was 99. For the same compound, the “P-1079 (LATS1/2) level” value (MCF7, 6 h) was 112, the P-AMPKa level (MCF7, 6 h) was 117# and the P-ATG13 level (MCF7, 6 h) was 118#. It also gave a P-ATM level (MCF7, 6 h) of 109, a P-ERBB1 level (MCF7, 6 h) of 100 and a P-ERBB2 level (MCF7, 6 h) of 100. For the same compound, the P-ERBB3 level (MCF7, 6 h) was 114#, the P-ERBB4 level (MCF7, 6 h) was 106 and the P-ERK level (MCF7, 6 h) was 99. For the same compound, the P-JAK2 level (MCF7, 6 h) was 100, the P-JNK level (MCF7, 6 h) was 90 and the P-KIT level (MCF7, 6 h) was 100. For the same compound, the P-MET level (MCF7, 6 h) was 96, the P-NFkB level (MCF7, 6 h) was 99 and the P-PDGFRb level (MCF7, 6 h) was 105. The P-PERK level (MCF7, 6 h) was 103, the “P-S2448 (mTOR) level” value (MCF7, 6 h) was 98 and the “P-S2481 (mTOR) level” value (MCF7, 6 h) was 96. The “P-T308 (AKT) level” value (MCF7, 6 h) was 107, the “P-Y694 (STAT5) level” value (MCF7, 6 h) was 98 and the “P-Y705 (STAT3) level” value (MCF7, 6 h) was 98. For the same compound, the P-eIF2a level (MCF7, 6 h) was 110, the P-p38 level (MCF7, 6 h) was 100 and the “P-p70 T389 level” value (MCF7, 6 h) was 110. The PD-L1 level (MCF7, 6 h) was 98, the PD-L2 level (MCF7, 6 h) was 98 and the PDGFRb level (MCF7, 6 h) was 99. For the same compound, the PERK level (MCF7, 6 h) was 101, the PP1 level (MCF7, 6 h) was 99 and the PTEN level (MCF7, 6 h) was 103. For the same compound, the STAT3 level (MCF7, 6 h) was 100, the STAT5 level (MCF7, 6 h) was 100 and the TAZ level (MCF7, 6 h) was 100. The ULK1 level (MCF7, 6 h) was 100, the “Y416 (c-SRC) level” value (MCF7, 6 h) was 101 and the “Y527 (c-SRC) level” value (MCF7, 6 h) was 103. It also gave a YAP level (MCF7, 6 h) of 99, a c-KIT level (MCF7, 6 h) of 102 and a c-MET level (MCF7, 6 h) of 99. The c-SRC level (MCF7, 6 h) was 101, the eIF2a level (MCF7, 6 h) was 100 and the mTOR level (MCF7, 6 h) was 100. The p38 level (MCF7, 6 h) was 103, the “p70 S6K level” value (MCF7, 6 h) was 100 and the P-ERBB3 level (MCF7, 6 h, listed as Palbo) was 114.
